Experimental data taken from PubChem BioAssay (NCI).
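How tested: cells in 96-well plates exposed to compound for 48 hours at five concentrations. Abbreviation: GI50, concentration required for 50% inhibition of growth. TGI marks complete inhibition of growth.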

What was measured:
Assay in all cases: inhibition of tumour cell growth, NCI panel, 48 h
ACHN renal = test system: ACHN renal
OVCAR-5 ovarian = test system: OVCAR-5 ovarian
SK-MEL-2 melanoma = test system: SK-MEL-2 melanoma
MDA-MB-231 breast = test system: MDA-MB-231 breast
MALME-3M melanoma = test system: MALME-3M melanoma
CAKI-1 renal = test system: CAKI-1 renal
CCRF-CEM leukemia = test system: CCRF-CEM leukemia
OVCAR-4 ovarian = test system: OVCAR-4 ovarian
SF-539 CNS = test system: SF-539 CNS
HOP-92 NSCLC = test system: HOP-92 NSCLC

Row | SMILES | GI50 (ACHN renal) [µM] | TGI (ACHN renal) [µM] | GI50 (OVCAR-5 ovarian) [µM] | TGI (OVCAR-5 ovarian) [µM] | GI50 (SK-MEL-2 melanoma) [µM] | TGI (SK-MEL-2 melanoma) [µM] | GI50 (MDA-MB-231 breast) [µM] | TGI (MDA-MB-231 breast) [µM] | GI50 (MALME-3M melanoma) [µM] | TGI (MALME-3M melanoma) [µM] | GI50 (CAKI-1 renal) [µM] | TGI (CAKI-1 renal) [µM] | GI50 (CCRF-CEM leukemia) [µM] | TGI (CCRF-CEM leukemia) [µM] | GI50 (OVCAR-4 ovarian) [µM] | TGI (OVCAR-4 ovarian) [µM] | GI50 (SF-539 CNS) [µM] | TGI (SF-539 CNS) [µM] | GI50 (HOP-92 NSCLC) [µM] | TGI (HOP-92 NSCLC) [µM]
1 | COc1cccc(C2=C(c3c(C)n(C)c4ccccc34)C(=O)NC2=O)c1 | > 25 | > 25 | > 25 | > 25 | > 25 | > 25 | > 25 | > 25 | > 21.2 | > 25 | > 25 | > 25 | > 25 | > 25 | > 21.5 | > 25 | > 25 | > 25 | – | –
2 | CCn1cc(C(=O)N/N=C/c2ccccc2)c(=O)c2cc(F)c(N3CCNC(C)C3)c(F)c21 (centres undefined) | 1.73 | 3.12 | 1.64 | 3.05 | – | – | – | – | – | – | 1.75 | 3.14 | – | – | 2.04 | 3.62 | 1.7 | 3.11 | 1.19 | 2.46
3 | N.N.N.N.N.[Cl-].[Co+3].c1ccc(-c2nn[n-]n2)cc1 | > 100 | > 100 | > 100 | > 100 | > 100 | > 100 | – | – | > 100 | > 100 | > 100 | > 100 | > 100 | > 100 | > 100 | > 100 | > 100 | > 100 | > 100 | > 100
4 | CN(C)CCNC(=O)c1cc([N+](=O)[O-])cc2c1Oc1ccccc1O2 | – | > 100 | – | > 100 | – | 56.3 | – | – | – | 97.9 | – | > 100 | – | > 100 | – | > 100 | – | > 100 | – | –
5 | O=C1C(N2CC2)=C(N2CC2)C(=O)C(N2CC2)=C1N1CC1 | < 0.0179 | 0.351 | 2.29 | 6.92 | – | – | 14.9 | 56.1 | 0.225 | 1.31 | 0.0371 | 2.18 | 1.82 | > 100 | 2.06 | 7.65 | 0.104 | 1.24 | 2.99 | 29.7
6 | C1COCCN1.C1COCCN1.NC1CCCCC1N.[Cl-].[Pt+2] (centres undefined) | > 100 | > 100 | > 100 | > 100 | > 100 | > 100 | – | – | 50.6 | > 100 | > 100 | > 100 | > 100 | > 100 | > 100 | > 100 | > 100 | > 100 | > 100 | > 100
7 | COC1OC(CBr)C(OC(=O)c2ccccc2)C(O)C1Br (centres undefined) | – | – | – | > 100 | – | – | – | – | – | > 100 | – | > 100 | – | > 100 | – | > 100 | – | > 100 | – | > 100
8 | C[C@]12CCC(=O)C=C1CC[C@@H]1C2CC[C@]2(C)Nc3c(cnn3-c3ccccc3)CC12 (some centres undefined) | – | > 100 | – | > 100 | – | > 100 | – | – | – | > 100 | – | > 100 | – | > 100 | – | > 100 | – | > 100 | – | –
9 | O=C(Nc1cccc(-n2cc(-c3ccncc3)c(-c3cc(O)cc(Cl)c3)n2)c1)Nc1ccc(Cl)c(C(F)(F)F)c1 | 3.1 | 15.3 | 3.79 | 13.1 | 2.2 | 4.55 | 1.86 | 5.85 | 2.37 | 6.25 | 2.68 | 7.87 | 2.73 | 8.93 | 3.21 | 9.23 | 1.97 | 4.49 | – | –
10 | O=C(NC(=O)c1cn(CCN(CCO)C(=O)NCCCCCCNC(=O)N(CCO)CCn2cc(C(=O)NC(=O)OCc3ccccc3)c(=O)[nH]c2=O)c(=O)[nH]c1=O)OCc1ccccc1 | – | > 100 | – | > 100 | – | > 100 | – | – | – | > 100 | – | > 100 | – | > 100 | – | > 100 | – | > 100 | – | > 100
11 | CCOC1=C2C(=O)OC(=O)C2C2CCCCC2=C1 (centres undefined) | – | – | – | – | – | > 100 | – | – | – | > 100 | – | > 100 | – | > 100 | – | > 100 | – | > 100 | – | > 100
12 | Cc1cc2c(C)nn(Cc3ccccc3)c2c(C(N)=O)c1C | – | > 100 | – | > 100 | – | > 100 | – | – | – | > 100 | – | – | – | > 100 | – | > 100 | – | > 100 | – | > 100
13 | C=CCNC(=O)N(CCCC(NC(C)=O)C(=O)NCc1ccccc1)Cc1ccccc1 (centres undefined) | – | > 100 | – | > 100 | – | > 100 | – | – | – | > 100 | – | > 100 | – | > 100 | – | > 100 | – | > 100 | – | > 100
14 | c1ccc(C(c2ccccc2)c2cccnc2)cc1 | – | > 100 | – | > 100 | – | > 100 | – | – | – | > 100 | – | > 100 | – | > 100 | – | > 100 | – | > 100 | – | –
15 | CN1CCN(CCOc2ccc(-c3cnc4c(-c5ccc(C(F)(F)F)cc5)cnn4c3)cc2)CC1 | 1.57 | 2.91 | 1.59 | 2.96 | 1.82 | 3.52 | 1.5 | 2.95 | 1.48 | 2.89 | 1.42 | 2.72 | – | – | 1.16 | 2.48 | 1.64 | 3.04 | 1.07 | 2.33
16 | C1=CC=C2NCCCCCCCNC3=CC=CC=CC3=NCCCCCCCN=C2C=C1 | – | > 100 | – | > 100 | – | > 100 | – | – | – | > 100 | – | > 100 | – | > 100 | – | > 100 | – | > 100 | – | 98.6
17 | CCCc1cc(=O)[nH]c(-n2nc(C)cc2C)n1 | 3.97 | > 100 | 28 | > 100 | 13 | 63 | 4.47 | > 100 | – | – | 2.47 | 26.3 | 1.59 | 26.5 | 4.68 | > 100 | 2.99 | > 100 | – | –
